Where two headings read alike, the source gives them in different places.
Columns and labels:
[1] = system: HBV DNA in the supernatant of HepG2.2.15; assay: Determination of anti-HBV activity in HepG2.2.15 cell (HBV DNA in supernatant by qPCR); format: cell-based, Hepatitis B virus; conditions: HBV DNA, read-out: Experiment 2 Cell experiment EC50
[2] = system: HepG2 cells; assay: Determination of cytotoxicity (HepG2 cells, resazurin assay, 4 days); format: cell-based; conditions: read-out: Experiment 3 Cytotoxicity CC50
Protocol: Experiment 3: Determination of Cytotoxicity
The cytotoxicity of the test compound was tested using HepG2 cells. The cells were incubated for 4 days in the presence of the test compound. Cell activity was assessed using the resazurin assay.

| Compound | EC50 ([1]; HepG2.2.15 cells) [nM] | CC50 [2] [nM] | EC50 ([1]; Hepatitis B virus, HepG2.2.15, HepG2.2.15 cells) [nM] |
| --- | --- | --- | --- |
| CC(C)[C@H]1CCc2c(cn(C)c2C(=O)Nc2cc(F)c(F)c(F)c2)S(=N)(=O)N1 (single isomer, unassigned) [Compound 20c2] | 0.1 to 100 | > 30000 |  |
| C[C@@H](OCc1ccccc1)[C@H]1C=Cc2c(cn(C)c2C(=O)Nc2ccc(F)c(C#N)c2)S(=N)(=O)N1 (single isomer, unassigned) [Compound 10ccc2] | 0.1 to 100 | > 30000 |  |
| Cn1cc2c(c1C(=O)Nc1cc(F)nc(C#N)c1)CC[C@H](C1CCCCC1)NS2(=N)=O (single isomer, unassigned) [Compound 20dd2] | 0.1 to 100 | > 30000 |  |
| CC(C)[C@H]1CCc2c(nn(C)c2C(=O)Nc2ccc(F)c(C#N)c2)S(=N)(=O)N1 (single isomer, unassigned) [Compound 80a2] | 0.1 to 100 | > 30000 |  |
| CC[C@H](C)[C@H]1C=Cc2c(cn(C)c2C(=O)Nc2ccc(F)c(C#N)c2)S(=N)(=O)N1 (single isomer, unassigned) [Compound 10o2] | 0.1 to 100 | > 30000 |  |
| CN=S1(=O)N[C@@H](CC(C)C)C=Cc2c1cn(C)c2C(=O)Nc1ccc(F)c(C#N)c1 (single isomer, unassigned) [Compound 50s2] | 0.1 to 100 | > 30000 |  |
| C[C@@H](OCc1ccccc1)[C@H]1C=Cc2c(cn(C)c2C(=O)Nc2cc(F)c(F)c(F)c2)S(=N)(=O)N1 (single isomer, unassigned) [Compound 10ddd2] | 0.1 to 100 | > 30000 |  |
| CC(O)[C@H]1C=Cc2c(cn(C)c2C(=O)Nc2cc(F)c(F)c(F)c2)S(=N)(=O)N1 (single isomer, unassigned) [Compound 30c2] | 100 to 1000 | > 30000 |  |
| COc1ccc(CC[C@H](C)[C@H]2CCc3c(cn(C)c3C(=O)Nc3cc(F)c(F)c(F)c3)S(=N)(=O)N2)cc1 (single isomer, unassigned) [Compound 20ttt2] | 0.1 to 100 | > 30000 |  |
| CC[C@H](C)[C@H]1C=Cc2c(cn(C)c2C(=O)Nc2ccc(F)c(F)c2)S(=N)(=O)N1 (single isomer, unassigned) [Compound 10n2] | 0.1 to 100 | > 30000 |  |
| C[C@@H](OCc1ccccc1)[C@H]1CCc2c(cn(C)c2C(=O)Nc2ccc(F)c(C#N)c2)S(=N)(=O)N1 (single isomer, unassigned) [Compound 20ccc2] | 0.1 to 100 | > 30000 |  |
| CC(C)C[C@H]1C=Cc2c(nn(C)c2C(=O)Nc2ccc(F)c(C#N)c2)S(=N)(=O)N1 (single isomer, unassigned) [Compound 70b2] | 0.1 to 100 | > 30000 |  |
| CC(C)[C@@H]1C=Cc2c(cn(C)c2C(=O)Nc2ccc(F)c(F)c2)S(=N)(=O)N1 (single isomer, unassigned) [Compound 10g2] | 0.1 to 100 | > 30000 |  |
| CCN=S1(=O)N[C@@H](CC(C)C)CCc2c1cn(C)c2C(=O)Nc1ccc(F)c(C#N)c1 (single isomer, unassigned) [Compound 60w2] | 0.1 to 100 | > 30000 |  |
| CC(C)[C@H]1C=Cc2c(cn(C)c2C(=O)Nc2ccc(F)c(C#N)c2)S(=N)(=O)N1 (single isomer, unassigned) [Compound 10b2] |  | > 30000 | 0.1 to 100 |
| CN=S1(=O)N[C@@H](CC(C)C)CCc2c1cn(C)c2C(=O)Nc1ccc(F)c(C#N)c1 (single isomer, unassigned) [Compound 60v2] | 0.1 to 100 | > 30000 |  |
| CC(C)[C@H]1CCc2c(cn(C)c2C(=O)Nc2ccc(F)c(C#N)c2)S(=N)(=O)N1 (single isomer, unassigned) [Compound 20b2] | 0.1 to 100 | > 30000 |  |
| CC(C)C[C@H]1CCc2c(cn(C)c2C(=O)Nc2ccc(F)c(C#N)c2)S(=O)(=NC(C)C)N1 (single isomer, unassigned) [Compound 60x2] | 0.1 to 100 | > 30000 |  |
| COc1ccc(CC[C@H](C)[C@H]2C=Cc3c(cn(C)c3C(=O)Nc3cc(F)nc(C#N)c3)S(=N)(=O)N2)cc1 (single isomer, unassigned) [Compound 10vvv2] | 0.1 to 100 | > 30000 |  |
| CN=S1(=O)N[C@@H](CC(C)C)CCc2c1nn(C)c2C(=O)Nc1ccc(F)c(C#N)c1 (single isomer, unassigned) [Compound 90b2] | 0.1 to 100 | > 30000 |  |
| CC(C)[C@H]1CCc2c(cn(C)c2C(=O)Nc2ccc(F)c(F)c2)S(=N)(=O)N1 (single isomer, unassigned) [Compound 20a2] | 0.1 to 100 | > 30000 |  |
| CN=S1(=O)N[C@@H](C(C)C)C=Cc2c1cn(C)c2C(=O)Nc1ccc(F)c(F)c1 (single isomer, unassigned) [Compound 50a2] | 0.1 to 100 | > 30000 |  |
| CCN=S1(=O)N[C@@H](CC(C)C)C=Cc2c1cn(C)c2C(=O)Nc1ccc(F)c(C#N)c1 (single isomer, unassigned) [Compound 50t2] | 0.1 to 100 | > 30000 |  |

| Compound | EC50 ([1]; HepG2.2.15 cells) [nM] | CC50 [2] [nM] | EC50 ([1]; Hepatitis B virus, HepG2.2.15, HepG2.2.15 cells) [nM] |
| --- | --- | --- | --- |
| CC(C)[C@H]1C=Cc2c(nn(C)c2C(=O)Nc2ccc(F)c(C#N)c2)S(=N)(=O)N1 (single isomer, unassigned) [Compound 70a2] | 0.1 to 100 | > 30000 |  |
| Cn1cc2c(c1C(=O)Nc1ccc(F)c(F)c1)CC[C@H](CO)NS2(=N)=O (single isomer, unassigned) [Compound 40g2] | 100 to 1000 | > 30000 |  |
| CCN=S1(=O)N[C@@H](C(C)C)CCc2c1cn(C)c2C(=O)Nc1ccc(F)c(C#N)c1 (single isomer, unassigned) [Compound 60g2] | 0.1 to 100 | > 30000 |  |
| CC(O)[C@H]1CCc2c(cn(C)c2C(=O)Nc2ccc(F)c(F)c2)S(=N)(=O)N1 (single isomer, unassigned) [Compound 40a2] | 100 to 1000 | > 30000 |  |
| CC(C)[C@H]1C=Cc2c(cn(C)c2C(=O)Nc2cc(F)c(F)c(F)c2)S(=N)(=O)N1 (single isomer, unassigned) [Compound 10c2] | 0.1 to 100 | > 30000 |  |
| CC(C)[C@H]1C=Cc2c(cn(C)c2C(=O)Nc2ccc(F)c(F)c2)S(=N)(=O)N1 (single isomer, unassigned) [Compound 10a2] | 0.1 to 100 | > 30000 |  |
| CC(C)C[C@H]1CCc2c(nn(C)c2C(=O)Nc2ccc(F)c(C#N)c2)S(=N)(=O)N1 (single isomer, unassigned) [Compound 80b2] | 0.1 to 100 | > 30000 |  |
| Cn1cc2c(c1C(=O)Nc1ccc(F)c(F)c1)C=C[C@H](C1CCCCC1)NS2(=N)=O (single isomer, unassigned) [Compound 10bb2] | 0.1 to 100 | > 30000 |  |
| CC(C)C[C@H]1CCc2c(cn(C)c2C(=O)Nc2ccc(F)c(C#N)c2)S(=O)(=NC2CC2)N1 (single isomer, unassigned) [Compound 60y2] | 0.1 to 100 | > 30000 |  |
| CC(C)[C@H]1C=Cc2c(cn(C)c2C(=O)Nc2ccnc(C(F)F)c2)S(=N)(=O)N1 (single isomer, unassigned) [Compound 10f2] | 0.1 to 100 | > 30000 |  |
| CC(O)[C@H]1C=Cc2c(cn(C)c2C(=O)Nc2ccc(F)c(F)c2)S(=N)(=O)N1 (single isomer, unassigned) [Compound 30a2] | 100 to 1000 | > 30000 |  |
| CC(C)C[C@H]1C=Cc2c(cn(C)c2C(=O)Nc2ccc(F)c(C#N)c2)S(=O)(=NC(C)C)N1 (single isomer, unassigned) [Compound 50u2] | 0.1 to 100 | > 30000 |  |
| CC(O)[C@H]1CCc2c(cn(C)c2C(=O)Nc2ccc(F)c(C#N)c2)S(=N)(=O)N1 (single isomer, unassigned) [Compound 40b2] | 100 to 1000 | > 30000 |  |
| Cn1cc2c(c1C(=O)Nc1ccnc(C(F)F)c1)CC[C@H](C1CCCCC1)NS2(=N)=O (single isomer, unassigned) [Compound 20ee2] | 0.1 to 100 | > 30000 |  |
| Cn1cc2c(c1C(=O)Nc1ccc(F)c(C#N)c1)C=C[C@H](C1CCCCC1)NS2(=N)=O (single isomer, unassigned) [Compound 10cc2] | 0.1 to 100 | > 30000 |  |
| CC(O)[C@H]1C=Cc2c(cn(C)c2C(=O)Nc2ccc(F)c(C#N)c2)S(=N)(=O)N1 (single isomer, unassigned) [Compound 30b2] | 100 to 1000 | > 30000 |  |
| CC(C)C[C@H]1C=Cc2c(cn(C)c2C(=O)Nc2ccc(F)c(C#N)c2)S(=O)(=NC2CC2)N1 (single isomer, unassigned) [Compound 50v2] | 0.1 to 100 | > 30000 |  |
| CC(C)[C@H]1C=Cc2c(cn(C)c2C(=O)Nc2cc(F)nc(C#N)c2)S(=N)(=O)N1 (single isomer, unassigned) [Compound 10e2] | 0.1 to 100 | > 30000 |  |
| CC(C)[C@@H]1C=Cc2c(cn(C)c2C(=O)Nc2ccc(F)c(C#N)c2)S(=N)(=O)N1 (single isomer, unassigned) [Compound 10h2] | > 1000 | > 30000 |  |
| CC(C)C[C@H]1C=Cc2c(cn(C)c2C(=O)Nc2cc(F)nc(C#N)c2)S(=N)(=O)N1 (single isomer, unassigned) [Compound 10w2] | 0.1 to 100 | > 30000 |  |
| CN=S1(=O)N[C@@H](C(C)C)CCc2c1nn(C)c2C(=O)Nc1ccc(F)c(C#N)c1 (single isomer, unassigned) [Compound 90a2] | 0.1 to 100 | > 30000 |  |
| CN=S1(=O)N[C@@H](C(C)C)CCc2c1cn(C)c2C(=O)Nc1ccc(F)c(F)c1 (single isomer, unassigned) [Compound 60a2] | 0.1 to 100 | > 30000 |  |
| Cn1cc2c(c1C(=O)Nc1ccc(F)c(F)c1)C=C[C@H](CO)NS2(=N)=O (single isomer, unassigned) [Compound 30g2] | 100 to 1000 | > 30000 |  |

Source: patent US11168055B2, “Endocyclic thiamidinoamide-arylamide compound and use thereof for treating hepatitis B” (SHANGHAI LONGWOOD BIOPHARMACEUTICALS CO., LTD., priority 2017, dated 2021)
